This is an account of results in US20260101898A1, “SULFONAMIDE COMPOUND AND HARMFUL-ARTHROPOD CONTROLLING COMPOSITION CONTAINING SAME” (SUMITOMO CHEMICAL COMPANY, LIMITED, priority 2022, published 2026).

Format in all cases: in vivo
Data set [1] deals with German cockroach (Blattella germanica). Nature of the data set: Test Method 6: coated glass vial, German cockroach male adults. To be noted: 40 mg/m^2 coated vial, 3 days. As for the experimental part:
An acetone solution which is adjusted to 800 ppm of each test compound is poured into a 50 mL glass vial, and the test compound is coated uniformly on inner face of the vial so as to 40 mg/m^2 of the test compound treated, and the vial is then dried.
5 German cockroach (Blattella germanica) male adults are released into the treated vial, and the vial is then covered with lid. After the prescribed time, the state of the German cockroach is examined, and the mortality is calculated by the following equation.

The test system of data set [2] is diamondback moth (Plutella xylostella). Description: Test Method 10: sprayed cabbage seedling, third-instar larvae of diamondback moth (formulation per Formulation Example 5). To be noted: 120 h, spray 20 mL/seedling, after 5 days. As for the experimental part:
(§1) Each test compound is made to a formulation according to a similar method to that described in the Formulation Example 5, and thereto is added water containing 0.03 v/v % of Shindain (registered trademark) to prepare a diluted solution containing a prescribed concentration of the test compound.
Cabbage (Brassicae oleracea) seedling (on the developmental stage of the third to fourth true leaf) is planted in a container, and the diluted solutions are sprayed to the seedling at a ratio of 20 mL/seedling. Thereafter, ten of third-instar larvae of diamondback moth (Plutella xylostella) are released. After 5 days, the number of the surviving insects is counted, and the mortality of insects is calculated by the following equation.

In data set [3] the test system is housefly (Musca domestica). Nature of the data set: Test Method 8: coated glass vial, housefly female adults. To be noted: 40 mg/m^2 coated vial, 1 day. As for the experimental part: An acetone solution which is adjusted to 800 ppm of each test compound is poured into a 20 mL glass vial, and the test compound is coated uniformly on inner face of the vial so as to 40 mg/m^2 of the test compound treated, and the vial is then dried.
5 housefly (Musca domestica) female adults are released into the treated vial, and the vial is then covered with lid. After the prescribed time, the state of the housefly is examined, and the mortality is calculated by the following equation.

Data set [4] relates to common cutworm (Spodoptera litura). Nature of the data set: Test Method 9: sprayed cabbage seedling, third-instar larvae of common cutworm (formulation per Formulation Example 5). To be noted: 144 h, spray 20 mL/seedling, after 6 days. As to the method:
as §1
Cabbage (Brassicae oleracea) seedling (on the developmental stage of the third to fourth true leaf) is planted in a container, and the diluted solutions are sprayed to the seedling at a ratio of 20 mL/seedling. Thereafter, ten of third-instar larvae of common cutworm (Spodoptera litura) are released. After 6 days, the number of the surviving insects is counted, and the mortality of insects is calculated by the following equation.

The subject of data set [5] is diamondback moth (Plutella xylostella). Description: Test Method 4: sprayed cabbage seedling, second-instar larvae of diamondback moth. To be noted: 120 h, spray 20 mL/seedling, after 5 days. As for the experimental part:
(§2) Each test compound is made to a formulation according to a similar method to that described in the Formulation Example 1, and thereto is added water containing 0.03 v/v % of Shindain (registered trademark) to prepare a diluted solution containing a prescribed concentration of the test compound.
(§3) Cabbage (Brassicae oleracea) seedling (on the developmental stage of the second to third true leaf) is planted in a container, and the diluted solutions are sprayed to the seedling at a ratio of 20 mL/seedling. Thereafter, the aerial part of the seedling is cut out and then is installed into a container in which a filter paper is placed at the bottom of the container. Five of second-instar larvae of diamondback moth (Plutella xylostella) are released into the container. After 5 days, the number of the surviving insects is counted, and the mortality of insects is calculated by the following equation.

The subject of data set [6] is Western corn rootworm (Diabrotica virgifera virgifera). Description: Test Method 5: corn seedling dip, second-instar larvae of Western corn rootworm. To be noted: 120 h, corn seedling immersed 30 seconds, after 5 days. As to the method:
Each 1 mg of the test compounds is dissolved in 50 μL of a mixed solution consisting of 5% of polyoxyethylene sorbitan mono-cocoate and 95% of acetone by volume ratio. Thereto is added water containing 0.03% by volume of Shindain (registered trademark) to prepare a diluted solution containing a prescribed concentration of the test compound.
A young seedling of corn (Zea mays) is immersed into the diluted solution for 30 seconds. Thereafter, two seedlings are installed in a plastic petri dish ([…]), and 10 of second-instar larvae of Western corn rootworm (Diabrotica virgifera virgifera) are released into the dish. After 5 days, the number of the dead insects is counted, and the mortality of insects is calculated by the following equation.

Data set [7] has as its system common cutworm (Spodoptera litura). Description: Test Method 3: sprayed cabbage seedling, second-instar larvae of common cutworm. To be noted: 120 h, spray 20 mL/seedling, after 5 days. As to the method:
as §2
as §3, with “common cutworm (Spodoptera litura)” for “diamondback moth (Plutella xylostella)”

Data set [8] has as its system cotton aphids (Aphis gossypii). Nature of the data set: Test Method 2: soil drench of cucumber seedling, cotton aphids released after 7 days. To be noted: drench 5 mL/seedling, examined after 6 days. As for the experimental part:
Each test compound is made to a formulation according to a similar method to that described in the Formulation Example 5, and thereto is added water to prepare a diluted solution containing a prescribed concentration of the test compound. Cucumber (Cucumis sativus) seedling (on the developmental stage of the second true leaf) is planted in a container, and the diluted solutions are drenched to the bottom of the seedling at a ratio of 5 mL/seedling. After 7 days, approximately 30 cotton aphids (Aphis gossypii) (all developmental stages of life) are released onto the leaf of the seedling. After 6 days, the number of the surviving insects is examined and the controlling value is calculated by the following equation. [formula] wherein the symbols in the formula represent the following descriptions. • Cb: Number of the test insects in untreated group; • Cai: Number of the surviving insects at the time of the investigation in untreated group; • Tb: Number of the test insects in treated group; • Tai: Number of the surviving insects at the time of the investigation in treated group; Here the “untreated group” represents a group where the similar treatment procedure to that of the treated group except not using the test compound is done.

Usually mortality stands for the share of the test organisms that died.

Bounds are passed on as bounds.

On to `CNS(=O)(=O)c1c(-c2nc3cc(C(F)(F)F)cnc3[nH]2)nc2ccc(C(F)(F)F)cn12` [Present compound 3], for which the mortality in data set [1] and in data set [3] was 100% throughout. The compound also came in with a mortality at 50 ppm in data set [2] of at least 80%. Also, the figures for the mortality at 200 ppm in data set [2], in data set [4] and in data set [6] were at least 80%, at least 80% and 100%, respectively. In addition, the mortality at 500 ppm in data set [5] and in data set [7] was at least 80% each time.
Compound `CN(C)S(=O)(=O)c1c(-n2nc3ccc(C(F)(F)F)cn3c2=O)nc2ccc(Br)cn12` [Present compound 2] showed a mortality at 50 ppm in data set [2] of at least 80%. For the same compound, the mortality at 200 ppm in data set [2] and in data set [4] was at least 80% in each case. Besides, the controlling value in data set [8] (250 ppm) and in data set [8] (1000 ppm) was 100% each time. Besides, the mortality at 500 ppm in data set [5] and in data set [7] was at least 80% throughout.
Take `CN(C)S(=O)(=O)c1cc(Br)cnc1-n1nc2ccc(C(F)(F)F)cn2c1=O` [Present compound 1]: the mortality at 200 ppm in data set [2] was at least 80%. The compound further had a mortality at 500 ppm in data set [5] of at least 80%.
